Tests used:
[1] = target: T1, DYRK1A (Homo sapiens, UniProt Q13627); test: SF3B1 Thr434 phosphorylation in HeLa cells (immunoblot); type: cell-based; details: HeLa cells expressing GFP-SF3B1-NT, 18 h
T1 construct: purchased ProQinase (Freiburg, Germany)
Protocol: Fig 4 Inhibition of SF3B1 phosphorylation by DYRK1A in HeLa cells. HeLa cells expressing GFP-SF3B1-NT were treated with the indicated compounds for 18 h. The phosphorylation state of SF3B1 was determined by immunoblotting with pT434 antibody, and the results were normalized to the total amount of SF3B1 immunoreactivity. A, Representative western blots. […] The vertical line indicates where irrelevant lanes were deleted from the final image. B, The column diagram summarizes the quantitative evaluation of 3–6 experiments for each compound (means + SD).
(500 ng/well) using FuGENE HD (Promega, Mannheim, Germany).

[2] = test system: MAO-A; design: method as in PMID 25240617; details: 1 μM; cited from earlier work
[3] = test system: DYRK1A; details: cited from earlier work
[4] = target: T2, CLK2 (Homo sapiens, UniProt P49760); details: 10 μM; cited from earlier work
T2 construct: purchased ProQinase (Freiburg, Germany)
T2 sequence (P49760 whole entry): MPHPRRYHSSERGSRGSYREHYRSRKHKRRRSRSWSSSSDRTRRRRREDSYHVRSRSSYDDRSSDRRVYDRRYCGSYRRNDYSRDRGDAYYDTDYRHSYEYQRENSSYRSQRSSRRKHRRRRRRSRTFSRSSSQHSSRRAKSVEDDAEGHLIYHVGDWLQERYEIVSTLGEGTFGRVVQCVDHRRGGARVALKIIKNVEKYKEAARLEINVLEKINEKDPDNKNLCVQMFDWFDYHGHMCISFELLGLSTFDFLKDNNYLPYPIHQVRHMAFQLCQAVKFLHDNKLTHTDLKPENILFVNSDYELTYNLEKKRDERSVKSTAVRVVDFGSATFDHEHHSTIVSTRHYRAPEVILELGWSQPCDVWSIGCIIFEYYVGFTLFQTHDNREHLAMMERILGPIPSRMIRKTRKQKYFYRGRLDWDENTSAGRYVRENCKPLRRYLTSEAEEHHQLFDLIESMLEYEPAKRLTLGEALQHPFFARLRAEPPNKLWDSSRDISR

[5] = target: T3, CLK3 (Homo sapiens, UniProt P49761); details: 10 μM; cited from earlier work
T3 construct: purchased ProQinase (Freiburg, Germany)
T3 sequence (P49761 whole entry): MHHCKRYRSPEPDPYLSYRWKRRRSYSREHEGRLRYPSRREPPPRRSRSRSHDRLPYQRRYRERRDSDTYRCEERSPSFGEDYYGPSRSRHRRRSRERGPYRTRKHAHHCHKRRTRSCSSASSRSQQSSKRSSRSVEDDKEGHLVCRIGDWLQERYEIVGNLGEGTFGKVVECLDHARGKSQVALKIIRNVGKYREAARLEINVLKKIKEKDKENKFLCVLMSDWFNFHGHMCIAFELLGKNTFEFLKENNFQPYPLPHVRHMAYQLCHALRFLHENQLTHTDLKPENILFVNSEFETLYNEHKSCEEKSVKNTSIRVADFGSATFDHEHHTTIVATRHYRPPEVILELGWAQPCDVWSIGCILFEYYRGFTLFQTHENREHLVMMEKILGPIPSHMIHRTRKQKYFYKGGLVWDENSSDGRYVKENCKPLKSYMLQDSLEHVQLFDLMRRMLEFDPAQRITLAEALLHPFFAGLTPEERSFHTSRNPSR

[6] = target: T4, DYRK2 (Homo sapiens, UniProt Q92630); details: 10 μM; cited from earlier work
T4 construct: purchased ProQinase (Freiburg, Germany)
T4 sequence (Q92630 1-601): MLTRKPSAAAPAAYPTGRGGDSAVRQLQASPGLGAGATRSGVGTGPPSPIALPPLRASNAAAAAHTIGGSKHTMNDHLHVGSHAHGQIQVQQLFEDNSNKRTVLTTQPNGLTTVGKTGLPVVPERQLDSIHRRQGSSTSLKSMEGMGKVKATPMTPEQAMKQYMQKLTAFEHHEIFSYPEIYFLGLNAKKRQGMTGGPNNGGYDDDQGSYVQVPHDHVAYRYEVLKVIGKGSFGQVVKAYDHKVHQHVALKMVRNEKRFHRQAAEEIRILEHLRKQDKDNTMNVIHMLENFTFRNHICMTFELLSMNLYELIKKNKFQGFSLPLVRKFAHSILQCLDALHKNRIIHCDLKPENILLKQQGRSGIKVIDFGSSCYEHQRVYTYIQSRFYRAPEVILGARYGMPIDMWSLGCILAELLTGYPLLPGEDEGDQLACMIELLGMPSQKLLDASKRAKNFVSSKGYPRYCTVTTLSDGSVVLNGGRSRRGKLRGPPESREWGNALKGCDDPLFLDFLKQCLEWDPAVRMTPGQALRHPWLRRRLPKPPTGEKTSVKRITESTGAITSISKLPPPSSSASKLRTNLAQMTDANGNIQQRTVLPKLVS

[7] = target: T5, DYRK3 (Homo sapiens, UniProt O43781); details: 10 μM; cited from earlier work
T5 construct: purchased ProQinase (Freiburg, Germany)
T5 sequence (O43781 1-588): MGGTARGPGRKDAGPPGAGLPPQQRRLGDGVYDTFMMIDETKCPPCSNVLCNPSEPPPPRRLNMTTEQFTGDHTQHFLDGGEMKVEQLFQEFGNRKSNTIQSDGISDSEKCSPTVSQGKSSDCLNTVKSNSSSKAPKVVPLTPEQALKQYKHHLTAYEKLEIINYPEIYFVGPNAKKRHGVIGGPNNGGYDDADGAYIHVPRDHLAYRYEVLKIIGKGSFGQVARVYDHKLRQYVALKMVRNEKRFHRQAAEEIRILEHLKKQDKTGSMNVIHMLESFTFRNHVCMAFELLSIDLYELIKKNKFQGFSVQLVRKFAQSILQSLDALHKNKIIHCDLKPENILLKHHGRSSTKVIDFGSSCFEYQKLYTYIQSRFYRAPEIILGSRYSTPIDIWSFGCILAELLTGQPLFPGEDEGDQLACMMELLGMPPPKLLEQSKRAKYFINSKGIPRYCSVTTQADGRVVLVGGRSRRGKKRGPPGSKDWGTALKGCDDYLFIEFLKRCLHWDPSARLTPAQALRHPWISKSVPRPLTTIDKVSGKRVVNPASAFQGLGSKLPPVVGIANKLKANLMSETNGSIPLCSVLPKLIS

[8] = test system: Haspin; details: 10 μM; cited from earlier work
[9] = target: CLK1 (Homo sapiens, UniProt P49759); design: purchased ProQinase (Freiburg, Germany); details: 10 μM; cited from earlier work
[10] = target: DYRK1B (Homo sapiens, UniProt Q9Y463); design: purchased ProQinase (Freiburg, Germany); details: 10 μM; cited from earlier work
Chain of DYRK1B (Q9Y463 whole entry): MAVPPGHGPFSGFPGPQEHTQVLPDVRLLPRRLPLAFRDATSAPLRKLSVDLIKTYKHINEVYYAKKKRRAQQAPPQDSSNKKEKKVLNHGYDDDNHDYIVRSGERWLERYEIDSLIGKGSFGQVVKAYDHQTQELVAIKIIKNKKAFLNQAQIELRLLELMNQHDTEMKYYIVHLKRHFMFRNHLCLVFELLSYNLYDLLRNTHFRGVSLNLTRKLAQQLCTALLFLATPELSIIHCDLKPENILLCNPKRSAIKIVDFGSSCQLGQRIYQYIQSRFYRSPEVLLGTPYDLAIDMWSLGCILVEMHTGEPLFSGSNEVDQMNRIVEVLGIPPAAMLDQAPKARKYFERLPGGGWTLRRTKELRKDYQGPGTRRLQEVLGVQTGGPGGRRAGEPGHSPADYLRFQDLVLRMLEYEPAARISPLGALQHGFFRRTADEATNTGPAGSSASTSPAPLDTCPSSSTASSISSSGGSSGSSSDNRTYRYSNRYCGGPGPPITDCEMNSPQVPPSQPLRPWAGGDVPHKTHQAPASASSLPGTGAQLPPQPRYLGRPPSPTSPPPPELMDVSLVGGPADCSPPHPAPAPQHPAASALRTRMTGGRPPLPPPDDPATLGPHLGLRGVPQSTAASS

[11] = target: HIPK1 (Homo sapiens, UniProt Q86Z02); design: purchased ProQinase (Freiburg, Germany); details: 10 μM; cited from earlier work
Chain of HIPK1 (Q86Z02 whole entry): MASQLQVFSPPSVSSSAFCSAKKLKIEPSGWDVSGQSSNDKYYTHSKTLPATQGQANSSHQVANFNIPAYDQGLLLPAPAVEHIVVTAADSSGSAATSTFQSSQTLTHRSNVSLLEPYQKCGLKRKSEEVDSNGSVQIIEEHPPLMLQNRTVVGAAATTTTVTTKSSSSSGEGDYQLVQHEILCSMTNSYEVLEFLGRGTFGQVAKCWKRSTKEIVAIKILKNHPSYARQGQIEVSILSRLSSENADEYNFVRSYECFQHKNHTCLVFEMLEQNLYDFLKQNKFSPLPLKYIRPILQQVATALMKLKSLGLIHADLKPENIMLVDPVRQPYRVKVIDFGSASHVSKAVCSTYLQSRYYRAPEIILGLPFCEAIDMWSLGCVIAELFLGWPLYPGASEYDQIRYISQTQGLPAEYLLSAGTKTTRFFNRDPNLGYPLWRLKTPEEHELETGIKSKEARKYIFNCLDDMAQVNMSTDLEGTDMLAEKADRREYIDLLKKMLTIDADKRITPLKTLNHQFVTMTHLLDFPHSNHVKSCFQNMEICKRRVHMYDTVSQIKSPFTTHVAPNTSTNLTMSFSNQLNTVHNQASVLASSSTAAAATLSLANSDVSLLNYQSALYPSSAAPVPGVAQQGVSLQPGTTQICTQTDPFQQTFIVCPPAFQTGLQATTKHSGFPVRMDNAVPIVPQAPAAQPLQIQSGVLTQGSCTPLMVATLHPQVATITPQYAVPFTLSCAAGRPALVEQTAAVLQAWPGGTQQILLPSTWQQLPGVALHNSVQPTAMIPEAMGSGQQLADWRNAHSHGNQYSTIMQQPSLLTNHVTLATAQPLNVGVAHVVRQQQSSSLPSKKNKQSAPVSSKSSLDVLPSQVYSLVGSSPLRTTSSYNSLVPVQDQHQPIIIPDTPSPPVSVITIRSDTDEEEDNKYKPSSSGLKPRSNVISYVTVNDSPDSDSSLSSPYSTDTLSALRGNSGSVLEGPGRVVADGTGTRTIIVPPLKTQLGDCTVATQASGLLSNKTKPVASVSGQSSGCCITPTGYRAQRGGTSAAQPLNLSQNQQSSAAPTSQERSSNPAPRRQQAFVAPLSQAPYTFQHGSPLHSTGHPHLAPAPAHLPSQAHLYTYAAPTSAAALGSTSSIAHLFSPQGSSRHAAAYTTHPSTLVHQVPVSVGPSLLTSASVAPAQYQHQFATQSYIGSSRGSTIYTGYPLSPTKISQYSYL

[12] = target: HIPK2 (Homo sapiens, UniProt Q9H2X6); design: purchased ProQinase (Freiburg, Germany); details: 10 μM; cited from earlier work
Chain of HIPK2 (Q9H2X6 whole entry): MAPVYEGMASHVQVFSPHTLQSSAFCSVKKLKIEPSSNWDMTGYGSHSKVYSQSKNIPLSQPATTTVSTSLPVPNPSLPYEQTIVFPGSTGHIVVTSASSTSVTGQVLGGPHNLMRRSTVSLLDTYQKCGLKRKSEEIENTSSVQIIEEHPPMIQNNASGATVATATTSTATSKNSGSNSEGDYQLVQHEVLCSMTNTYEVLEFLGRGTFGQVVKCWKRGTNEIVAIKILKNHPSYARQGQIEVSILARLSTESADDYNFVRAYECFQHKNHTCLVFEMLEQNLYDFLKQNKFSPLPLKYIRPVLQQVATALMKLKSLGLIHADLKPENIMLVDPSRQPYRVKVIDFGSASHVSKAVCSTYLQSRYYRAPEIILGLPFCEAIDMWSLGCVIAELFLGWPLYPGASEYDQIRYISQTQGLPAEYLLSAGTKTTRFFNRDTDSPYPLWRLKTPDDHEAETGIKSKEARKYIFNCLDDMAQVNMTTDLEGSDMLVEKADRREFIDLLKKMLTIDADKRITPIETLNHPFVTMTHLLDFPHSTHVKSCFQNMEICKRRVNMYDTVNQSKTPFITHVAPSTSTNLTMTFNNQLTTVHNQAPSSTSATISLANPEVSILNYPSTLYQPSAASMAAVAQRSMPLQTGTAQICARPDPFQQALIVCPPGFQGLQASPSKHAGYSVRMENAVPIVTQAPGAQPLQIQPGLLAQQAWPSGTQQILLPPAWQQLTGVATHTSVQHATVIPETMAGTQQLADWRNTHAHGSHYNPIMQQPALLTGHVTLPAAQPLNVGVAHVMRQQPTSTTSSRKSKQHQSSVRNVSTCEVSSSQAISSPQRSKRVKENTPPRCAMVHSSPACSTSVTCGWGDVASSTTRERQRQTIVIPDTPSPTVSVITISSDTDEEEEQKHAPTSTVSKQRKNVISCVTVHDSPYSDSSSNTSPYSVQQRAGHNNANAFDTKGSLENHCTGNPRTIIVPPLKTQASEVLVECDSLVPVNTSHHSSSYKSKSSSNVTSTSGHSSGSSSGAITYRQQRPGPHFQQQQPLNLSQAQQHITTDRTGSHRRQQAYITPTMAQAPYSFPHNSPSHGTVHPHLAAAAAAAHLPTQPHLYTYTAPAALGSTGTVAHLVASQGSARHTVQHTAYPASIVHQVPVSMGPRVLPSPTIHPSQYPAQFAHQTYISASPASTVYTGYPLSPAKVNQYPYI

[13] = target: HIPK3 (Homo sapiens, UniProt Q9H422); design: purchased ProQinase (Freiburg, Germany); details: 10 μM; cited from earlier work
[14] = target: T6, HIPK4 (Homo sapiens, UniProt Q8NE63); design: purchased ProQinase (Freiburg, Germany); details: 10 μM; cited from earlier work
T6 sequence (Q8NE63 1-616): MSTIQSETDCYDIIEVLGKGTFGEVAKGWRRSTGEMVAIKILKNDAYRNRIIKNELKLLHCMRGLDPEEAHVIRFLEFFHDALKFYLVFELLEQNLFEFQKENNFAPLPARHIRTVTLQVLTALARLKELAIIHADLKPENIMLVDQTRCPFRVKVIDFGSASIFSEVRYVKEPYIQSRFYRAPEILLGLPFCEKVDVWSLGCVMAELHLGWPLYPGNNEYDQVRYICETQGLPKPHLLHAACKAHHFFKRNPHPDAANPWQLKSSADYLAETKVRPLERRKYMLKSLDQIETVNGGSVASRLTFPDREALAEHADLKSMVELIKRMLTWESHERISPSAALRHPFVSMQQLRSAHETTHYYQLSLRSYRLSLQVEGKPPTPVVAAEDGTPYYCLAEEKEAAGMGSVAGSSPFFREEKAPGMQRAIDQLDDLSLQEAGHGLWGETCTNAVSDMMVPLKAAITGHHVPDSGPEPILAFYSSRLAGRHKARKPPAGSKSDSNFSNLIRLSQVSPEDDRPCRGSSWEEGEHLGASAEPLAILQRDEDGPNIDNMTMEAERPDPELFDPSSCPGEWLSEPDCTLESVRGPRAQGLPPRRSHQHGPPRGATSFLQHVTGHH

[15] = target: IRAK1 (Homo sapiens, UniProt P51617); design: purchased ProQinase (Freiburg, Germany); details: 10 μM; cited from earlier work
[16] = target: PIM1 (Homo sapiens, UniProt P11309); design: purchased ProQinase (Freiburg, Germany); details: 10 μM; cited from earlier work
Chain of PIM1 (P11309 whole entry): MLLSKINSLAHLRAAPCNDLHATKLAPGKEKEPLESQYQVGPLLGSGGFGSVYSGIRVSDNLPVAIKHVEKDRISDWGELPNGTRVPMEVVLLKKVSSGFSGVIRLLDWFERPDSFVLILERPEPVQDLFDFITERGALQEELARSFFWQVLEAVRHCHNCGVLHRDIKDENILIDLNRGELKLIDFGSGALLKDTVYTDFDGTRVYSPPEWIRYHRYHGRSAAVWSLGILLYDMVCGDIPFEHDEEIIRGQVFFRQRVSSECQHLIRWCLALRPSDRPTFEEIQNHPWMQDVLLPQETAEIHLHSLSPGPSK

[17] = target: PIM2 (Homo sapiens, UniProt Q9P1W9); design: purchased ProQinase (Freiburg, Germany); details: 10 μM; cited from earlier work
Chain of PIM2 (Q9P1W9 whole entry): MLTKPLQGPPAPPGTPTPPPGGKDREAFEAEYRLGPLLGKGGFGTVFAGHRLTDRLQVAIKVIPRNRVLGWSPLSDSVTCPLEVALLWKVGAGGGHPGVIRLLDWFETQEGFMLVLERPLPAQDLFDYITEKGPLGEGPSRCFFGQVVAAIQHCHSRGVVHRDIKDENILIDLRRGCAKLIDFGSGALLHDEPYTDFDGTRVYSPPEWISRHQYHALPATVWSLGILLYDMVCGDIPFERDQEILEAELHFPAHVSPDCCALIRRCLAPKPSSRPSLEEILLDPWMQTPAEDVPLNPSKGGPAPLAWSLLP

[18] = target: PIM3 (Homo sapiens, UniProt Q86V86); design: purchased ProQinase (Freiburg, Germany); details: 10 μM; cited from earlier work

Question: Which “inhibition of DYRK1A-catalysed SF3B1 Thr434 phosphorylation” value [1] does the source give for `N#CCn1c2c(Br)nccc2c2ccc(Cl)c(Cl)c21` [AnnH79] here?
Answer: does not inhibit DYRK1A

Question: Which results are given for `CCCCCCCn1c2cc(OC)ccc2c2ccnc(C)c21` [N9-heptyl harmine]?
Answer: inhibition of MAO-A [2]: 13%; inhibition of DYRK1A ([3]; 1 μM): 85%

Question: What does the source list for `COc1ccc2c3ccnc(C(F)(F)F)c3n(CCCCN)c2c1` [LDN-211898]?
Answer: Residual activity (% of control) [4]: 1 % of control; Residual activity (% of control) [5]: 63 % of control; Residual activity (% of control) ([3]; 10 μM): 0 % of control; Residual activity (% of control) [6]: 14 % of control; Residual activity (% of control) [7]: 3 % of control; Residual activity (% of control) [8]: 0 % of control; Residual activity (% of control) [9]: 0 % of control; Residual activity (% of control) [10]: 2 % of control; Residual activity (% of control) [11]: 59 % of control; Residual activity (% of control) [12]: 47 % of control; Residual activity (% of control) [13]: 51 % of control; Residual activity (% of control) [14]: 72 % of control; Residual activity (% of control) [15]: 47 % of control; Residual activity (% of control) [16]: 9 % of control; Residual activity (% of control) [17]: 36 % of control; Residual activity (% of control) [18]: 11 % of control

From publication PMC4508061, “Selectivity Profiling and Biological Activity of Novel β-Carbolines as Potent and Selective DYRK1 Kinase Inhibitors” (PLoS ONE, 2015)
